Measurements as given in patent publication US20070160501A1, “Device and method for treating a crystal by applying microdrops thereto” (PROTEROS BIOSTRUCTURES GMBH, priority 2003, published 2007).

Key:
Human a Thrombin = Human a Thrombin (Homo sapiens, UniProt P00734); test: Binding of PMSF to a freely mounted thrombin crystal by dripping on microdrops, X-ray crystallographic examination; conditions: 100 mM PMSF in isopropyl alcohol dripped on thrombin crystal; active center around Ser195; FIG. 4
Excerpt: A thrombin crystal was mounted on the free mounting system by means of a loop at a previously determined initial humidity of 93%. Under a microscope, surplus reservoir buffer was cautiously removed from the loop by means of a strip of filter paper. The stability and the consistency of the size of the crystal, respectively, were monitored by means of the video system.
Herein, a highly concentrated PMSF solution in an organic solvent was used.
Subsequently, the crystal was bombarded with individual drops (single shot mode) of the solution. The total volume dripped on approximately corresponded to the volume of the crystal, i.e. about 300 pl. […] Herein, the projection of the surface of the crystal was monitored after each dripping-on and it was waited until the surface remained uniform again before the next drop was applied. The individual parameters of the experiment can be seen in Table 1.
After completion of dripping-on, the crystal was moistened with PFPE oil (perfluoropolyether) and shock-frozen in liquid nitrogen. The X-ray crystallographic data record was recorded on a rotating copper anode. Data processing was conducted by means of the programs XDS and XSCALE, refinement and manual model construction was conducted by means of the programs CNX and O. The statistics of data collection, processing, and refinement are given in Table 2.

human α-thrombin = human α-thrombin (Homo sapiens, UniProt P00734); conditions: stated in brackets without method; inhibitor used with human α-thrombin; cited from earlier work
[1] = cited from earlier work

For `O=S(=O)(F)Cc1ccccc1` [PMSF, Phenylmethylsulfonyl Fluoride], the “binding mode seen in the experimentally determined electron density” value (Human a Thrombin) was “covalent bond of the PMSF at Ser195”.

For `Cl.NCCc1ccc(S(=O)(=O)F)cc1` [Pefabloc SC, 4-(2-aminoethyl)-benzenesulfonyl-fluoride-hydrochloride], the Ki (human α-thrombin) is listed as 6.5 µM and the “stability in an aqueous system” value [1] is listed as “high stability in an aqueous system”.
